Data from patent US20240392343A1, “METHODS TO SCREEN YEAST TO IDENTIFY XENOBIOTICS THAT TARGET PESTS, PATHOGENS AND PARASITES” (The Governing Council of the University of Toronto, priority 2023, published 2024).
Entries after “also recorded” stand apart in the source; their conditions may differ.

What was measured:
[1] = system: cytochrome P450s in C. elegans and diverse PPN species; assay: HPLC of cyproside-3 parent and metabolites in whole worms with pan-P450 inhibitor 1-ABT; format: in vivo
Description: (§1) FIGS. A-A′″ show HPLC chromatograms with cyproside-3 (abbreviated cypros-3) unmodified parent molecule (P) and metabolite (M1-M5) peaks indicated. MP1 is a cyproside-3 metabolite uniquely produced in P. penetrans. Y-axis indicates absorbance wavelength in nm. FIGS. B-B′″ show quantification of unmodified cyproside-3 parent (P) and metabolite peaks from A-A′″. Error bars indicate SEM, p-values calculated using unpaired t-test. FIGS. C-C′″ show the proportion mobile worms relative to DMSO solvent controls after 72-hour exposure to 20 μM cyproside-3 (C. elegans) or 60 μM cyproside-3 (all other species). P-values calculated using unpaired t-test.
(§2) Using the pan-P450 inhibitor (1-ABT), cyproside-3's metabolism was inhibited in vivo (FIGS. 11A and 11B).

[2] = system: C. elegans and diverse PPN species; assay: Worm mobility after cyproside-3 exposure with 1-ABT; format: in vivo; settings: 72-hour exposure to 20 μM cyproside-3 (C. elegans) or 60 μM cyproside-3 (all other species)
Description: as §1, §2

M. incognita CYP4731A3 = assay: CYPce assay: yeast-based M. incognita CYP expression screen and dose-response; format: cell-based, Meloidogyne incognita; settings: 19 M. incognita CYP-expressing yeast strains vs empty vector, 50 μM in screen
Description: (§3) Each data point corresponds to an individual yeast strain expressing a unique M. incognita CYP enzyme. The data point above the dotted line has a p-value <0.01, and corresponds to the strain expressing M. incognita CYP4731A3. […] Unmodified sel-A and metabolites M2 and M3 are indicated. […] AUC is the area under the curve for M2 and M3 combined, calculated at 260 nm. Error bars are SEM. The p-value was obtained from an unpaired one-tailed Student's t-test comparing the means of empty vector control and CYP4731A3 expressing yeast. M1 was not detectable.
(§4) Each data point corresponds to an individual yeast strain expressing a unique M. incognita P450 enzyme. The data point above the dotted line has a p-value <0.01 and corresponds to the strain expressing M. incognita CYP4731A3. […] Viability relative to untreated controls is indicated by the grey-coded scale. […] Peaks corresponding to the unmodified cyproside-3 and the three cyproside-3 metabolites visible using the HPLC-DAD system (M1, M2 and M3) are indicated. […] AUC is the area under the curve, error bars indicate SEM. […]
With that single strain, a library of small molecules are screened for those that can be bioconverted by the heterologously-expressed enzyme into a product that kills the cells expressing the enzyme. As set out herein, the growth of cells was measured, for example, by a variety of means, including optical density. […]

Mi-CYP4731A3 = assay: HPLC analysis of lysates of yeast expressing CYP4731A3; format: in vitro ADME, Meloidogyne incognita; settings: lysates of yeast treated with 100 μM compound
Description: as §3
as §4, with “SEM. The p-values were obtained from unpaired two-tailed Student's t-tests comparing the means of the empty vector control and CYP4731A3 expressing yeast.” for “SEM.”

C. elegans P450 CYP-35D1 = biological target: T1, C. elegans P450 CYP-35D1 (Caenorhabditis elegans, UniProt O45364); assay: CYPce assay: viability of yeast expressing CYP-35D1 vs empty vector; format: cell-based; settings: yeast expressing CYP-35D1 vs empty vector yeast; dose-response
T1 construct: expressed in transfected cells; host or cells: Saccharomyces cerevisiae (yeast), expression vector vs empty vector
T1 sequence (O45364 1-499): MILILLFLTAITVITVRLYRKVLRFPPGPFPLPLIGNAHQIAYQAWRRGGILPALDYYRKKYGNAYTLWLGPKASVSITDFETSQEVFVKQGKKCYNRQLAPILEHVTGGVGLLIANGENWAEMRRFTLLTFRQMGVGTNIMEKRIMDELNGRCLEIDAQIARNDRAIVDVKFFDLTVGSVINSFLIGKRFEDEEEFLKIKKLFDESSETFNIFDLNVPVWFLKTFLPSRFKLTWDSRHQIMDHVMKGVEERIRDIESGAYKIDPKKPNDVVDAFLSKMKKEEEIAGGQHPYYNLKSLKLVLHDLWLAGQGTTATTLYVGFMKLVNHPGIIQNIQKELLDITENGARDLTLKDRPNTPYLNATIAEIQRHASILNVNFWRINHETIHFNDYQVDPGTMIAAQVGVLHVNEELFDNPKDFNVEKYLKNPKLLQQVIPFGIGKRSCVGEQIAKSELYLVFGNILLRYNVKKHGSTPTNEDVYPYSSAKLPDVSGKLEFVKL
Description: (§5) In this condition cyproside-3 is not metabolized into a lethal product and yeast are viable. […] CYP-35D1 is capable of metabolizing cyproside-3 into an active metabolite which leads to reduced viability in the yeast. […] Viability relative to untreated controls is indicated by the gray coded scale. […] AUC is the area under the curve, error bars indicate SEM. The p-values were obtained from unpaired two-tailed Student's t-tests comparing the means of the empty vector control and CYP-35D1 expressing yeast. […] Peaks corresponding to the unmodified cyproside-3 and the three cyproside-3 metabolites visible using our HPLC-DAD system (M1, M2 and M3) are indicated.
CYPce (pronounced sip-sea) is an acronym for the heterologous expression of CYPs in S. cerevisiae for the purpose of identifying P450s that can bioactivate small molecules into lethal products that may or may not be reactive. […]
(§6) With that single strain, a library of small molecules are screened for those that can be bioconverted by the heterologously-expressed enzyme into a product that kills the cells expressing the enzyme. As set out herein, the growth of cells was measured, for example, by a variety of means, including optical density.

CYP-35D1 = biological target: T2, CYP-35D1 (Caenorhabditis elegans, UniProt O45364); assay: HPLC / LCMS analysis of cyproside-3 metabolites, CYP-35D1; format: in vitro ADME, C. elegans; settings: lysates of yeast after treatment with 100 μM cyproside-3
T2 construct: expressed in transfected cells; host or cells: Saccharomyces cerevisiae (yeast), expression vector vs empty vector
T2 sequence (O45364 1-499): T1 sequence (O45364 1-499)
Description: as §5
Cytochrome P450 enzymes (CYPs) catalyze the S-oxidation of cyproside-3 which produces an electrophilic sulfoxide metabolite. This sulfoxide metabolite reacts with glutathione (GSH) and is further processed to γ-Glutamyl-Cysteine (γ-Glu-Cys), Cysteinylglycine (Cys-Gly) and cysteine (Cys) conjugates.

[3] = system: diverse nematode species (non-parasitic and plant parasitic species); assay: Dose-response analysis on diverse nematode species (FIG. 10); format: in vivo; settings: dose-response relative to solvent control
Description: (§7) Dose-response analysis of cyproside-3 and tioxazafen on diverse nematode species and off-target systems including human cells (HEK293 and HepG2), fungi (Saccharomyces cerevisiae and Candida albicans) and plant beneficial rhizobacteria (Pseudomonas simiae WCS417 and Pseudomonas defensor WCS374). The activity of the compound relative to the solvent control in each assay is indicated by the gray coded scale.

[4] = system: human cells (HEK293 and HepG2), fungi (Saccharomyces cerevisiae and Candida albicans) and plant beneficial rhizobacteria (Pseudomonas simiae WCS417 and …); assay: Dose-response analysis on off-target systems (FIG. 10); format: cell-based; settings: HEK293, HepG2, S. cerevisiae, C. albicans, P. simiae WCS417, P. defensor WCS374; relative to solvent control
Description: as §7

Meloidogyne incognita = assay: Soil-based tomato root infection assay; format: in vivo; settings: 6 weeks of infection in soil drenched with chemical
Description: Cyprosides 3-2, 3-3, and 3-4 are structural analogs of cyproside-3. […] All error bars represent SEM, p-values calculated using an unpaired t test vs. solvent controls. […] Cyprosides 3-7, 3-12, 3-25, and 3-26 are structural analogs of cyproside-3. The other data points represent negative (water, DMSO) and positive (fluopyram, tioxazafen) controls. All error bars represent SEM.
There were no significant adverse effects on plant growth by the cyproside-3s as evident by the resulting root mass (FIG. 12C).

C. elegans P450 CYP-35C1 = assay: CYPce assay: viability of yeast expressing CYP-35C1 vs empty vector; format: cell-based; settings: yeast expressing CYP-35C1 vs empty vector yeast; dose-response
Description: (§8) Viability relative to untreated controls is indicated by the gray coded scale. […] The p-values were obtained from unpaired two-tailed Student's t-tests comparing the means of the empty vector control and CYP-35C1 expressing yeast.
CYPce (pronounced sip-sea) is an acronym for the heterologous expression of CYPs in S. cerevisiae for the purpose of identifying P450s that can bioactivate small molecules into lethal products that may or may not be reactive. The CYPce assay relies on culturing a single strain of yeast (S. cerevisiae) (or any convenient cell type in other embodiments) that expresses a single P450 enzyme (or any other small molecule modifying enzyme in other embodiments) from a single targeted organism (FIG. 2).
as §6

CYP-35C1 = format: in vitro ADME; settings: C. elegans
Description: as §8
FIGS. 6A-C show mass spectrometry (MS) data for metabolite M1-M3 HPLC fractions and untreated control fractions, as well as MS/MS fragmentation data for selected masses. Structures of γ-glutamylcysteine (γ-Glu-Cys) (A), glutathione (B), and cysteine (C) conjugates of a selectivin-A (sel-A) electrophilic sulfoxide metabolite are shown, along with fragmentations that produce masses found in the MS/MS plots. […] S-oxidation produces an electrophilic sulfoxide metabolite that reacts with glutathione (GSH) either spontaneously or via glutathione-S-transferase (GST), and is likely further processed to 7-Glu-Cys and cysteine conjugates via phytochelatin synthase (PCS) and 7-glutamyl transferase (GGT), respectively. Cytochrome p450 enzymes (CYPs) likely mediate S-oxidation.

`Nn1nnc2ccccc21` [Cyproside 1-ABT, reference compound] was tested, and the “effect of 1-ABT on cyproside-3's metabolism in vivo” value [1] was “inhibited” and the “effect of 1-ABT on cyproside-3's effects on the worms (mobility)” value [2] was “inhibited cyproside-3's effects on the worms”.
With `CCSc1nnc(-c2ccc(Cl)cc2)o1` [cyproside-3, 2-(4-chlorophenyl)-5-(ethylthio)-1,3,4-oxadiazole] the “yeast killing dependent on Mi-CYP4731A3” value (M. incognita CYP4731A3) was “can kill yeast in a Mi-CYP4731A3-dependent manner”, the “metabolism by Mi-CYP4731A3 in yeast (HPLC)” value (Mi-CYP4731A3) was “metabolized by Mi-CYP4731A3 in yeast” and the “yeast killing dependent on CYP-35D1” value (C. elegans P450 CYP-35D1) was “killed yeast in a manner dependent on C. elegans P450 CYP-35D1”. The “metabolism by CYP-35D1 (HPLC)” value (CYP-35D1) was “metabolized by CYP-35D1 into a reactive product”, the “phylogenetic activity profile: activity on nematode species” value [3] was “high selectivity for all nematode species tested; also recorded: broad-spectrum activity in plant-parasitic nematodes” and the “activity against non-targeted cells and organisms” value [4] was “little-to-no activity against non-targeted cells and organisms”. The “control of root infection by M. incognita (eggs per milligram of tomato root tissue)” value (Meloidogyne incognita) was “demonstrated activity”.
In the case of `Clc1ccc(-c2cn3ccsc3n2)cc1` [selectivin-A, 6-(4-chlorophenyl)imidazo[2,1-b]thiazole], the “yeast killing dependent on CYP-35C1” value (C. elegans P450 CYP-35C1) is reported as “kills yeast in a manner dependent on the C. elegans P450 CYP-35C1”, the “nature of product of metabolism by CYP-35C1 (LCMS and NMR)” value (CYP-35C1) is reported as “metabolized by CYP-35C1 into a reactive lethal product” and the “metabolism by CYP-35C1 in yeast (HPLC)” value (CYP-35C1; 100 μM) is reported as “metabolized by CYP-35C1 in yeast”. The “yeast killing dependent on Mi-CYP4731A3” value (M. incognita CYP4731A3) was “kills yeast in a Mi-CYP4731A3-dependent manner” and the “metabolism by Mi-CYP4731A3 in yeast (HPLC)” value (Mi-CYP4731A3) was “metabolized by Mi-CYP4731A3 in yeast”.
